Experimental data published in patent publication US20250002548A1, “Wild Boar Cathelicidin Peptide Variants and Vectors Encoding the Same for Uses in Managing Coronavirus Infections” (Emory University, priority 2021, published 2025).
Square brackets hold non-standard residues; d marks the D form. Peptide text beside a SMILES is read from it.

Experiments:
[1] = system: human red blood cells (RBCs)
[2] = system: SARS-CoV-2; conditions: ratio of IC50 and TD50; SARS-CoV-2 vs Vero E6 cells
[3] = system: Vero E6 and HEK293T cells; conditions: administered over 48 hours
[4] = system: SARS-CoV-2

| Structure (SMILES) | hemolytic activity [1] | therapeutic index (TI) [2] | cytotoxicity [3] | IC50 [4] [µM] |
| --- | --- | --- | --- | --- |
| CC[C@H](C)[C@H](NC(=O)[C@H](CCCCN)NC(=O)[C@H](CCC(=O)O)NC(=O)[C@H](CCCCN)NC(=O)[C@H](CO)NC(=O)[C@H](CCCCN)NC(=O)[C@H](CCCNC(=N)N)NC(=O)[C@H](Cc1ccccc1)NC(=O)[C@H](Cc1ccccc1)NC(=O)[C@H](CC(=O)O)NC(=O)CNC(=O)[C@H](CC(C)C)NC(=O)[C@@H](N)CC(C)C)C(=O)NCC(=O)N[C@@H](CCCCN)C(=O)N[C@@H](CCC(=O)O)C(=O)N[C@@H](Cc1ccccc1)C(=O)N[C@@H](CCCCN)C(=O)N[C@@H](CCCNC(=N)N)C(=O)N[C@H](C(=O)N[C@H](C(=O)N[C@@H](CCC(N)=O)C(=O)N[C@@H](CCCNC(=N)N)C(=O)N[C@H](C(=O)N[C@@H](CCCCN)C(=O)N[C@@H](CC(=O)O)C(=O)N[C@@H](Cc1ccccc1)C(=O)N[C@@H](CC(C)C)C(=O)N[C@@H](CCCNC(=N)N)C(=O)N[C@@H](CC(N)=O)C(=O)N[C@@H](CC(C)C)C(=O)N[C@H](C(=O)N1CCC[C@H]1C(=O)N[C@@H](CCCNC(=N)N)C(=O)N[C@H](C(=O)N[C@@H](CCC(=O)O)C(=O)N[C@@H](CO)C(=O)O)[C@@H](C)O)C(C)C)[C@@H](C)CC)C(C)C)[C@@H](C)CC [LL-37, reference compound] | significant hemolytic activity | – | – | – |
| CC[C@@H](C)[C@@H](NC(=O)[C@H]1CCCN1C(=O)[C@H]1CCCN1C(=O)[C@H](NC(=O)[C@@H](Cc1c[nH]c2ccccc12)NC(=O)[C@@H](CCCCN)NC(=O)[C@@H](CC(C)C)NC(=O)[C@H](NC(=O)[C@@H](CCCCN)NC(=O)CNC(=O)[C@H](NC(=O)[C@@H](CCCCN)NC(=O)[C@@H](CCCCN)NC(=O)[C@@H](CC(C)C)NC(=O)[C@@H](CCCNC(=N)N)NC(=O)[C@@H](CCCCN)NC(=O)[C@@H](CCCNC(=N)N)NC(=O)[C@H](NC(=O)[C@@H](CCCCN)NC(=O)[C@@H](CCCCN)NC(=O)[C@@H](CCCNC(=N)N)NC(=O)[C@@H](CC(C)C)NC(=O)[C@@H](CCCNC(=N)N)NC(=O)[C@@H](CCCNC(=N)N)NC(=O)[C@@H](Cc1ccccc1)NC(=O)[C@@H](CCCNC(=N)N)NC(=O)CNC(=O)[C@H](N)C(C)C)[C@H](C)O)[C@H](C)CC)C(C)C)[C@H](C)CC)C(=O)N[C@@H](C(=O)NCC(=O)N[C@H](CO)C(=O)N[C@@H](C(=O)N1CCC[C@@H]1C(=O)N[C@H](CC(C)C)C(=O)NCC(=O)N[C@H](CO)C(=O)NCC(=O)O)[C@H](C)CC)C(C)C [D-Yongshi] (H-[dV]G[dR][dF][dR][dR][dL][dR][dK][dK][dT][dR][dK][dR][dL][dK][dK][dI]G[dK][dV][dL][dK][dW][dI][dP][dP][dI][dV]G[dS][dI][dP][dL]G[dS]G-OH) | – | 1.64 | significantly increased cytotoxicity | – |
| CC[C@H](C)[C@H](NC(=O)[C@H](CCCCN)NC(=O)[C@H](CCCCN)NC(=O)[C@H](CC(C)C)NC(=O)[C@H](CCCNC(=N)N)NC(=O)[C@H](CCCCN)NC(=O)[C@H](CCCNC(=N)N)NC(=O)[C@@H](NC(=O)[C@H](CCCCN)NC(=O)[C@H](CCCCN)NC(=O)[C@H](CCCNC(=N)N)NC(=O)[C@H](CC(C)C)NC(=O)[C@H](CCCNC(=N)N)NC(=O)[C@H](CCCNC(=N)N)NC(=O)[C@H](Cc1ccccc1)NC(=O)[C@H](CCCNC(=N)N)NC(=O)CNC(=O)[C@@H](N)C(C)C)[C@@H](C)O)C(=O)NCC(=O)N[C@@H](CCCCN)C(=O)N[C@H](C(=O)N[C@@H](CC(C)C)C(=O)N[C@@H](CCCCN)C(=O)N[C@@H](Cc1c[nH]c2ccccc12)C(=O)N[C@H](C(=O)N1CCC[C@H]1C(=O)N1CCC[C@H]1C(=O)N[C@H](C(=O)N[C@H](C(=O)NCC(=O)N[C@@H](CO)C(=O)N[C@H](C(=O)N1CCC[C@H]1C(=O)N[C@@H](CC(C)C)C(=O)NCC(=O)N[C@@H](CS)C(=O)NCC(=O)O)[C@@H](C)CC)C(C)C)[C@@H](C)CC)[C@@H](C)CC)C(C)C [PMAP-36R] (H-VGRFRRLRKKTRKRLKKIGKVLKWIPPIVGSIPLGCG-OH; N-terminus and C-terminus assumed) | significant hemolytic activity | – | greater toxicity than LL-37 | 12 |
| CC[C@H](C)[C@H](NC(=O)[C@H](CCCCN)NC(=O)[C@H](CCCCN)NC(=O)[C@H](CC(C)C)NC(=O)[C@H](CCCNC(=N)N)NC(=O)[C@H](CCCCN)NC(=O)[C@H](CCCNC(=N)N)NC(=O)[C@@H](NC(=O)[C@H](CCCCN)NC(=O)[C@H](CCCCN)NC(=O)[C@H](CCCNC(=N)N)NC(=O)[C@H](CC(C)C)NC(=O)[C@H](CCCNC(=N)N)NC(=O)[C@H](CCCNC(=N)N)NC(=O)[C@H](Cc1ccccc1)NC(=O)[C@H](CCCNC(=N)N)NC(=O)CNC(=O)[C@@H](N)C(C)C)[C@@H](C)O)C(=O)NCC(=O)N[C@@H](CCCCN)C(=O)N[C@H](C(=O)N[C@@H](CC(C)C)C(=O)N[C@@H](CCCCN)C(=O)N[C@@H](Cc1c[nH]c2ccccc12)C(=O)N[C@H](C(=O)N1CCC[C@H]1C(=O)N1CCC[C@H]1C(=O)N[C@H](C(=O)N[C@H](C(=O)NCC(=O)N[C@@H](CO)C(=O)N[C@H](C(=O)N1CCC[C@H]1C(=O)N[C@@H](CC(C)C)C(=O)NCC(=O)N[C@@H](CO)C(=O)NCC(=O)O)[C@@H](C)CC)C(C)C)[C@@H](C)CC)[C@@H](C)CC)C(C)C [Yongshi] (H-VGRFRRLRKKTRKRLKKIGKVLKWIPPIVGSIPLGSG-OH) | significantly reduced hemolytic activity | 3.50 | decreased cytotoxicity compared to the parent PMAP-36R and LL-37 | – |
